Laboratory results: ChEMBL document CHEMBL1201862, “PubChem BioAssay data set” (2004)
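All cell lines were grown in 96-well plates and treated with compound for 48 hours. At the GI50, growth is halved.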 Activity calls are given as the source filed them. Rule as the data show it: active = GI50 up to about 1.1 µM and inactive = higher.

Assays:
Test in all cases: DTP human tumour cell line panel, 48 h
[1] = test system: DU-145
[2] = test system: UACC-62
[3] = test system: UACC-257
[4] = test system: SR
[5] = test system: 786-0
[6] = test system: SF-295
[7] = test system: RPMI-8226
[8] = test system: SK-MEL-28
[9] = test system: SN12C
[10] = test system: Hs-578T
[11] = test system: MDA-N
[12] = test system: OVCAR-4
[13] = test system: SK-MEL-2
[14] = test system: ACHN
[15] = test system: M14
[16] = test system: MOLT-4
[17] = test system: SNB-19
[18] = test system: NCI/ADR-RES
[19] = test system: MDA-MB-231
[20] = test system: SW-620

Row | SMILES | GI50 [1] | GI50 [2] | GI50 [3] | GI50 [4] | GI50 [5] | GI50 [6] | GI50 [7] | GI50 [8] | GI50 [9] | GI50 [10] | GI50 [11] | GI50 [12] | GI50 [13] | GI50 [14] | GI50 [15] | GI50 [16] | GI50 [17] | GI50 [18] | GI50 [19] | GI50 [20]
1 | Oc1cc(Cl)cc2cccnc12 | 9.71 µM (inactive) | 1.01 µM (active) | 1.38 µM (inactive) | 0.449 µM (active) | 8.71 µM (inactive) | 0.288 µM (active) | 0.601 µM (active) | 19.3 µM (inactive) | 1.7 µM (inactive) | 4.05 µM (inactive) | 17.9 µM (inactive) | 0.411 µM (active) | 5.92 µM (inactive) | 1.38 µM (inactive) | 10.5 µM (inactive) | 0.465 µM (active) | 5.94 µM (inactive) | 0.354 µM (active) | 2.19 µM (inactive) | 1.65 µM (inactive)
2 | COc1cc([N+](=O)[O-])ccc1NC1=CC(=O)CCC1 | > 100 µM (inactive) | > 100 µM (inactive) | > 100 µM (inactive) | > 100 µM (inactive) | > 100 µM (inactive) | > 100 µM (inactive) | > 100 µM (inactive) | 59.4 µM (inactive) | > 100 µM (inactive) | > 100 µM (inactive) | > 100 µM (inactive) | > 100 µM (inactive) | > 100 µM (inactive) | > 100 µM (inactive) | > 100 µM (inactive) | > 100 µM (inactive) | > 100 µM (inactive) | > 100 µM (inactive) | > 100 µM (inactive) | > 100 µM (inactive)
3 | Cc1cc(C)n(C(=O)C(C)Sc2nnc(SC(C)C(=O)n3nc(C)cc3C)s2)n1 (stereo unspecified) | > 100 µM (inactive) | > 100 µM (inactive) | > 100 µM (inactive) | > 100 µM (inactive) | > 100 µM (inactive) | > 100 µM (inactive) | > 100 µM (inactive) | > 100 µM (inactive) |  | > 100 µM (inactive) | > 100 µM (inactive) | > 100 µM (inactive) | > 100 µM (inactive) | > 100 µM (inactive) | > 100 µM (inactive) | > 100 µM (inactive) | > 100 µM (inactive) | > 100 µM (inactive) | > 100 µM (inactive) | > 100 µM (inactive)
4 | Cc1cc(N(CCC#N)CCC#N)ccc1C(/N=N/c1ccc(Cl)cc1)=N\NC(=O)c1ccccc1 | 44.7 µM (inactive) | 29.8 µM (inactive) | 58.7 µM (inactive) | 9.59 µM (inactive) | 34.6 µM (inactive) | 9.23 µM (inactive) | 54.2 µM (inactive) |  | 44.2 µM (inactive) | 17 µM (inactive) | 5.21 µM (inactive) | 47.8 µM (inactive) | 84.1 µM (inactive) | 82 µM (inactive) | 80.5 µM (inactive) | 40 µM (inactive) | 41.9 µM (inactive) | 27.4 µM (inactive) | 34.6 µM (inactive) | 
5 | CCOC(=O)C1C(=O)C=C(c2cc(C)ccc2O)CC1c1cccc(Cl)c1 (stereo unspecified) | 50.1 µM (inactive) | 13.9 µM (inactive) | 2.12 µM (inactive) | 5.21 µM (inactive) | 36.6 µM (inactive) | 23.9 µM (inactive) | 18.7 µM (inactive) |  | 27.7 µM (inactive) | 21 µM (inactive) | 6.04 µM (inactive) | 17.5 µM (inactive) | 16.7 µM (inactive) | 19.7 µM (inactive) | 30.1 µM (inactive) | 22.6 µM (inactive) | 19.6 µM (inactive) | 17.5 µM (inactive) | 23.9 µM (inactive) | 29 µM (inactive)
6 | CCCCC[C@H]1CCCCCCCCCC(=O)OC2C(O[C@@H]3OC(C)[C@H](OC(=O)[C@@H](C)CC)C(O[C@@H]4OC(C)[C@H](O)C(O)[C@@H]4O)[C@@H]3OC(=O)[C@H](C)CC)[C@H](OC3C(O)[C@@H](O)C(C)O[C@H]3O1)OC(CO)[C@H]2O (stereo partly specified) | 16.2 µM (inactive) | 16.9 µM (inactive) | 15.8 µM (inactive) | 16.7 µM (inactive) | 17.4 µM (inactive) | 18 µM (inactive) | 16.8 µM (inactive) | 16.1 µM (inactive) | 17.5 µM (inactive) | 16.4 µM (inactive) | 17.4 µM (inactive) | 19.2 µM (inactive) | 16.4 µM (inactive) | > 10 µM (inactive) | 18.2 µM (inactive) | 15.6 µM (inactive) | 16.1 µM (inactive) | 18.8 µM (inactive) | 16.8 µM (inactive) | 16.5 µM (inactive)
7 | O=C1CC(Sc2nc3ccc(I)cc3c(=O)n2Cc2ccccc2)C(=O)NN1 (stereo unspecified) | 20 µM (inactive) | 15.3 µM (inactive) | 18.3 µM (inactive) | 2.73 µM (inactive) | 15.1 µM (inactive) | 18.2 µM (inactive) | 17 µM (inactive) | 17.9 µM (inactive) | 14.5 µM (inactive) | 18.5 µM (inactive) | 18 µM (inactive) | 17.4 µM (inactive) | 17.1 µM (inactive) | 16.6 µM (inactive) | 19.6 µM (inactive) | 14.3 µM (inactive) | 19.3 µM (inactive) | 20.2 µM (inactive) | 15.6 µM (inactive) | 18 µM (inactive)
